Key:
DOT1L = target: T1, DOT1L (Homo sapiens, UniProt Q8TEK3); assay: Target selectivity for H3K79 residue in MDA-MB-231 cell line, western blot; format: cell-based
T1 construct: based on the finding that DOT1L was overexpressed in the breast cancer cell line; endogenous in cells
Protocol: Compound 2 (X=ph) was selected from among selenopsammaplin A and the derivatives thereof, and in order to confirm the selectivity thereof for the H3K79 residue, which is an intracellular DOT1L target, an experiment was performed as follows. The triple-negative breast cancer cell line MDA-MB-231 was spread at a concentration of 2×10^6 cells/well on a DMEM medium containing 10% FBS in a 6-well plate, cultured at 37° C. for 24 hours under a 5% CO2 condition, and then washed twice with phosphate-buffered saline (PBS). Attached cells were recovered and washed twice with PBS, and then boiling 2× sample loading buffer (250 mM Tris-HCl (pH 6.8), 4% SDS, 10% glycerol, 0.006% bromophenol blue, 2% β-mercaptoethanol, 50 mM sodium fluoride, and 5 mM sodium orthovanadate) was added thereto to disrupt the cells and the cells were left at 100° C. for 10 minutes. After cooling, the cells were stored at […] and […] at 37° C. immediately before use in protein quantification and electrophoresis. 10 μg of proteins were electrophoresed at 100 V for 2 hours using a 12% SDS-polyacrylamide gel (#456-1036, Bio-Rad, Hercules, Calif.). […] These were quantified using ImageJ software and the results thereof are illustrated in FIG. 4B.

[1] = test system: EMT markers in MDA-MB-231 cells; assay: Protein expression of EMT markers, western blot; format: cell-based, human; conditions: MDA-MB-231, western blot, FIGS. 7E and 7F
Protocol: The triple-negative breast cancer cell line MDA-MB-231 was spread at a concentration of 2×10^6 cells/well on a DMEM medium containing 10% FBS in a 6-well plate, cultured at 37° C. for 24 hours under a 5% CO2 condition, and then washed twice with phosphate-buffered saline (PBS). Attached cells were recovered and washed twice with PBS, and then boiling 2× sample loading buffer (250 mM Tris-HCl (pH 6.8), 4% SDS, 10% glycerol, 0.006% bromophenol blue, 2% β-mercaptoethanol, 50 mM sodium fluoride, and 5 mM sodium orthovanadate) was added thereto to disrupt the cells and the cells were left at 100° C. for 10 minutes. After cooling, the cells were stored at […] and […] at 37° C. immediately before use in protein quantification and electrophoresis. 10 μg of proteins were electrophoresed at 100 V for 2 hours using a 12% SDS-polyacrylamide gel (#456-1036, Bio-Rad, Hercules, Calif.). The separated proteins were transferred to a PVDF membrane (ISEQ15150, Millipore, Bedford, Mass.) at 100 V for 1 hour, and a blocking buffer (5% non-fat dry milk in TBS containing 0.1% Tween-20 (TBST)) was injected thereinto to culture the proteins at room temperature for 1 hour. After washing three times with TBST for 5 minutes, the corresponding single antibody was diluted with 5% non-fat dry milk in TBST and allowed to react with the membrane at 4° C. for 18 hours. The membrane [ISEQ 1S150, Millipore, Bedford, Mass.] was washed three times with TBST for 10 minutes, and then horseradish peroxidase (HRP)-conjugated secondary antibodies were diluted with 2.5% non-fat dry milk in TBST at a ratio of 1:2,000 and allowed to react with the membrane at room temperature for 2 hours. After washing three times with TBST for 10 minutes, the reaction product was treated with a chemiluminescent reagent (LabFrontier, Suwon, Korea) to confirm the protein expression levels of E-cadherin, N-cadherin, vimentin, and beta-actin (Fuji Film Corp., Japan) using LAS-4000 (Fuji Film Corp., Japan), and the results thereof are illustrated in FIG. 7E. The proteins were quantified using ImageJ software, which are illustrated in FIG. 7F.

T1 sequence (Q8TEK3 whole entry): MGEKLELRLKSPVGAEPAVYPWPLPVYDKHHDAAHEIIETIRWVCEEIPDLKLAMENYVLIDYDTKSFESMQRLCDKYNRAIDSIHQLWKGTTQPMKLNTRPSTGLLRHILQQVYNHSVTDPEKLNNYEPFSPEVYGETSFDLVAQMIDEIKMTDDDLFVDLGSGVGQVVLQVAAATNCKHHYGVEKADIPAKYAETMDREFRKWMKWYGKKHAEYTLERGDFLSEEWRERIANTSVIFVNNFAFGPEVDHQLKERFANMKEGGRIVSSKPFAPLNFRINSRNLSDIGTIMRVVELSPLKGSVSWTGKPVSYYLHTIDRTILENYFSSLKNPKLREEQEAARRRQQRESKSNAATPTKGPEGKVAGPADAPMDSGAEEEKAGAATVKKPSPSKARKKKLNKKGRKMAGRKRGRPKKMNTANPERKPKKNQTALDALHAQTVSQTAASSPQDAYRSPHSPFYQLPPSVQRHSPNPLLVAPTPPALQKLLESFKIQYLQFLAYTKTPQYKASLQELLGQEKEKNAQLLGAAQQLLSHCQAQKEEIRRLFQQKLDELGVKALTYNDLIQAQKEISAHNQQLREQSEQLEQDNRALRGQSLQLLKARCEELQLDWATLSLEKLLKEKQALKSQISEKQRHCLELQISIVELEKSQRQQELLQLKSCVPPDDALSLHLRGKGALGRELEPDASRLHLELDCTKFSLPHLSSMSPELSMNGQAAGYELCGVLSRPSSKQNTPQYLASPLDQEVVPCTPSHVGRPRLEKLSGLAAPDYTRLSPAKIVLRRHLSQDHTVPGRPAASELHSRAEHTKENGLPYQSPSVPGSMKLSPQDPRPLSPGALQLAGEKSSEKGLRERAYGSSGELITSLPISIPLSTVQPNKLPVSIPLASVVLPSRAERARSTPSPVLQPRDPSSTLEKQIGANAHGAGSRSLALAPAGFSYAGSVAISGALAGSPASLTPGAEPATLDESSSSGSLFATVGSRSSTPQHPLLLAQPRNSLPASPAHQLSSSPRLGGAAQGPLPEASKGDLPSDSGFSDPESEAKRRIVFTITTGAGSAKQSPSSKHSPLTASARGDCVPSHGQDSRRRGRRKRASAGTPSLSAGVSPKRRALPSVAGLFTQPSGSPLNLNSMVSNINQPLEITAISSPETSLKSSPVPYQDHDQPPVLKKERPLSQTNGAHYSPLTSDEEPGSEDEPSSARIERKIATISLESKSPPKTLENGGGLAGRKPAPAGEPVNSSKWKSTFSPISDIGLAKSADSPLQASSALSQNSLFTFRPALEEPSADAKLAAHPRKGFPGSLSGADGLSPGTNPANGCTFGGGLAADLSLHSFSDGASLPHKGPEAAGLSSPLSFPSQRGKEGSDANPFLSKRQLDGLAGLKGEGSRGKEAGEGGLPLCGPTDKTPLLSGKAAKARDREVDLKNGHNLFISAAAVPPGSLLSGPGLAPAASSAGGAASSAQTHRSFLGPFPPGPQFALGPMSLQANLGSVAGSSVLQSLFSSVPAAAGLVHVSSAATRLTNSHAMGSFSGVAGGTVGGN

O=C(NCC[Se][Se]CCNC(=O)/C(Cc1ccccc1)=N/O)/C(Cc1ccccc1)=N/O [Compound 2, (2E,2′E)-N,N′-(diselenediylbis(ethane-2,1-diyl))bis(2-(hydroxyimino)-3-phenylpropanamide)]
methylation of other histone 3 residues (DOT1L; MDA-MB-231, H3K4me2, H3K27me2, H3K36me2 western blot, FIG. 4): without changing | methylation of H3K79 (residue 79) (DOT1L; MDA-MB-231, H3K79me2 western blot, FIG. 4, compared to psammaplin A): specifically suppressed | protein expression of E-cadherin [1]: increased | protein expression of N-cadherin [1]: suppressed | protein expression of ZEB1 [1]: suppressed | protein expression of vimentin [1]: suppressed

— patent publication US11903912B2, “Composition for preventing and treating breast cancer including selenopsammaplin A as active ingredients” (Seoul National University R & DB Foundation, priority 2019, dated 2024)
